Measurements from patent publication US12337049B2, “Method for whitening skin using composition for skin whitening” (AMOREPACIFIC CORPORATION, priority 2021, dated 2025).

Key:
Format in all cases: cell-based
[1] = system: melanin-producing enzymes (TRP1, TRP2) in normal human melanocytes; experiment: Increase in protein expression of melanin-producing enzymes (TRP1, TRP2) by C. acnes; conditions: 10^7 CFU/ml live C. acnes, 1 nM to 100 nM, 2 days, FIGS. 11 and 12
Procedure: Cutibacterium acnes (C. acnes, ATCC 6919) are inoculated in a BHI medium and cultured at 37° C. under anaerobic conditions for 72 hours to 96 hours, and then, the medium is collected. The collected medium is centrifuged (4° C., 10 minutes at 5,000×g), precipitating the bacteria. The precipitated bacteria are twice washed with phosphate-buffered saline (PBS) and treated up to a final concentration of 10^10 CFU/ml, preparing a live C. acnes stock, and the live C. acnes stock is cryopreserved at −80° C. Normal human melanocytes are placed on 6-well plates, and the next day, the medium is changed to a PMA-free melanocyte medium. Herein, 10^4, 10^5, 10^6, and 10^7 CFU/ml of live C. acnes are treated. After culturing for 2 days, the cells broken by using a lysis buffer in each well to separate proteins. The separated proteins are measured with respect to relative protein expression levels by using a specific antibody for TRP1 (tyrosinase related protein 1) and TRP2 (tyrosinase related protein 2), which are melanin-producing enzymes.
Normal human melanocytes are placed on 6-well plates, and the next day, the medium is changed to a PMA-free melanocyte medium. […] The separated proteins are measured with respect to relative protein expression levels by using a specific antibody for TRP1 (tyrosinase related protein 1) and TRP2 (tyrosinase related protein 2), which are melanin-producing enzymes.

[2] = system: melanin-producing enzyme (tyrosinase, TRP2) in normal human melanocytes; experiment: Increase in protein expression of melanin-producing enzyme (tyrosinase, TRP2) by pigmentation inducer (IBMX); conditions: 100 μM IBMX, 0.001-100 nM, 4 days, FIGS. 7 to 9
Procedure: (§1) Normal human melanocytes are placed on a 6-well plate, and the next day, the medium is changed to a PMA-free melanocyte medium. At this time, they are treated with each composition including the compound represented by Chemical Formula 1-1 (Cayman chemical) in an amount of 0 nM, 0.001 nM, 0.01 nM, 0.1 nM, 1 nM, 10 nM, and 100 nM, respectively (based on the total amount of the composition) along with 100 μM pigmentation inducer (IBMX). After culturing for 4 days, the cells are broken using a lysis buffer in each well and then the proteins are separated. Subsequently, the separated proteins are measured with respect to relative protein expression levels by using a specific antibody for TRP2 (tyrosinase related protein 2), which is a melanin-producing enzyme.

[3] = system: melanin-producing enzyme (tyrosinase, TRP2) in normal human melanocytes; experiment: Increase in protein expression of melanin-producing enzyme (tyrosinase, TRP2) by pigmentation inducer (α-MSH); conditions: 500 nM α-MSH, 0.001-100 nM, 4 days, FIGS. 4 to 6
Procedure: as §1, with “500 nM” for “100 μM”, “(α-MSH).” for “(IBMX).”

[4] = system: melanin-producing enzymes (tyrosinase, TRP2) in normal human melanocytes; experiment: Protein expression of melanin-producing enzymes (tyrosinase, TRP2) in normal human melanocytes without inducer; conditions: no inducer, 0.001-100 nM, 4 days
Procedure: as §1, with “to a […] melanocyte medium.” for “to a PMA-free melanocyte medium.”, “of the composition). After culturing” for “of the composition) along with 100 μM pigmentation inducer (IBMX). After culturing”, “antibody for tyrosinase which is a melanin-producing enzyme from, TRP2 (tyrosinase” for “antibody for TRP2 (tyrosinase”, “related protein 2).” for “related protein 2), which is a melanin-producing enzyme.”

## CC/C=C\C[C@H](O)/C=C/C=C\C/C=C\C=C\[C@@H](O)C/C=C\CCC(=O)O [Chemical Formula 1-1]
[1]
  increase in protein expression of the melanin-producing enzyme (TRP1, TRP2) by C. acnes: effectively inhibited
[2]
  increase in protein expression of the melanin-producing enzyme (tyrosinase, TRP2) by IBMX: effectively inhibited
[3]
  increase in protein expression of the melanin-producing enzyme (tyrosinase, TRP2) by α-MSH: effectively inhibited
[4]; antibody detection vs GAPDH, FIGS. 1 to 3
  increase in the protein expression of the melanin-producing enzyme (tyrosinase, TRP2): effectively inhibited
[4]; concentration dependence
  increase in protein expression of the tyrosinase: effectively inhibited depending on a concentration
